According to article PMC6410080 (Viruses, 2019):
Where a name gives a salt, the structure may show the parent alone.

Tested on: RRV
Test: microbe, parasite or virus in culture
Assay type: cell-based
Settings: Ross River virus, HeLa Kyoto, read-out: IC50 RRV

SMILES | IC50
CC(C)COCC(CN(Cc1ccccc1)c1ccccc1)N1CCCC1 (stereo not shown) [Bepridil, Bepridil hydrochloride] | 4.6 µM
CNc1ccc2oc(C[C@H]3O[C@@]4(CC[C@H]3C)O[C@H]([C@H](C)C(=O)c3ccc[nH]3)[C@H](C)C[C@H]4C)nc2c1C(=O)O [Calcimycin] | 6.5 µM
CC[C@@]1([C@@H]2O[C@@H]([C@H]3O[C@@](O)(CO)[C@H](C)C[C@@H]3C)C[C@@H]2C)CC[C@H]([C@]2(C)CC[C@]3(C[C@H](O)[C@@H](C)[C@@H]([C@@H](C)[C@@H](OC)[C@H](C)C(=O)O)O3)O2)O1 [Monensin, Monensin sodium salt] | 4.6 µM
O=C(Nc1ccc([N+](=O)[O-])cc1Cl)c1cc(Cl)ccc1O [Niclosamide] | 0.82 µM
CCN(CC)Cc1cc(Nc2ccnc3cc(Cl)ccc23)ccc1O [Amodiaquine, Amodiaquine dihydrochloride dihydrate] | 6.2 µM
C=C1C(=O)O[C@H]2[C@H]1CC/C(C)=C/CC[C@@]1(C)O[C@@H]21 [Parthenolide] | 7.7 µM
O=C1c2c(O)ccc(O)c2C(=O)c2c(NCCNCCO)ccc(NCCNCCO)c21 [Mitoxantrone, Mitoxantrone dihydrochloride] | 4.9 µM
